Key:
[1] = system: NCI-H835 (Other Solid Carcinomas); experiment: Bliss excess, mean over the matrix (fraction); higher = more synergy
How it was run: (§1)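 Cell lines grown in DMEM/F12 or RPMI with 10% FBS were plated in 1536-well plates and held 24 hours at 37°C, 5% CO2 before 72 hours of exposure to two-drug dose matrices, with DMSO typically at 0.2%. CellTiter-Glo 2.0 luminescence gave viability, which was converted to inhibition. Vehicle wells were set to 0 and blank wells to 1. Combination Emax is the second-highest inhibition in the matrix, and Bliss excess is the observed combination effect minus the expected EA + EB − EA·EB, where EA and EB are the single-agent effects.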

[2] = system: NCI-H2009 (Lung Adenocarcinoma); experiment: as above
How it was run: as §1

SK-MEL-24 (Melanoma) [3] = experiment: as above
How it was run: as §1

[4] = system: COR-L105 (Lung Adenocarcinoma); experiment: as above
How it was run: as §1

[5] = system: CAL-85-1 (Breast Carcinoma); experiment: as above
How it was run: as §1

[6] = system: NTERA-2-cl-D1 (Other Solid Carcinomas); experiment: as above
How it was run: as §1

[7] = system: SW1463 (Colorectal Carcinoma); experiment: as above
How it was run: as §1

NCI-H2452 (Mesothelioma) [8] = experiment: as above
How it was run: as §1

[9] = system: L-363 (Plasma Cell Myeloma); experiment: as above
How it was run: as §1

C32 (Melanoma) [10] = experiment: as above
How it was run: as §1

[11] = system: BC-1 (B-Cell Non-Hodgkin's Lymphoma); experiment: as above
How it was run: as §1

[12] = system: NCI-H2023 (Non-Small Cell Lung Carcinoma); experiment: as above
How it was run: as §1

[13] = system: NCI-H1648 (Lung Adenocarcinoma); experiment: as above
How it was run: as §1

[14] = system: RPMI-8402 (T-Lymphoblastic Leukemia); experiment: as above
How it was run: as §1

[15] = system: MRK-nu-1 (Breast Carcinoma); experiment: as above
How it was run: as §1

[16] = system: MDA-MB-175-VII (Breast Carcinoma); experiment: as above
How it was run: as §1

[17] = system: NCI-H1435 (Non-Small Cell Lung Carcinoma); experiment: as above
How it was run: as §1

GCIY (Gastric Carcinoma) [18] = experiment: as above
How it was run: as §1

[19] = system: OVKATE (Ovarian Carcinoma); experiment: as above
How it was run: as §1

[20] = system: KNS-62 (Squamous Cell Lung Carcinoma); experiment: as above
How it was run: as §1

A375 (Melanoma) [21] = experiment: as above
How it was run: as §1

MG-63 (Osteosarcoma) [22] = experiment: as above
How it was run: as §1

[23] = system: SBC-3 (Small Cell Lung Carcinoma); experiment: as above
How it was run: as §1

[24] = system: NCI-H835 (Other Solid Carcinomas); experiment: combination Emax (second highest fraction inhibited in the dose matrix, 72 h); higher = more inhibition; extreme values may be limits of the assay
How it was run: as §1

[25] = system: NCI-H2009 (Lung Adenocarcinoma); experiment: as above
How it was run: as §1

SK-MEL-24 (Melanoma) [26] = experiment: as above
How it was run: as §1

[27] = system: COR-L105 (Lung Adenocarcinoma); experiment: as above
How it was run: as §1

[28] = system: CAL-85-1 (Breast Carcinoma); experiment: as above
How it was run: as §1

[29] = system: NTERA-2-cl-D1 (Other Solid Carcinomas); experiment: as above
How it was run: as §1

[30] = system: SW1463 (Colorectal Carcinoma); experiment: as above
How it was run: as §1

NCI-H2452 (Mesothelioma) [31] = experiment: as above
How it was run: as §1

[32] = system: L-363 (Plasma Cell Myeloma); experiment: as above
How it was run: as §1

C32 (Melanoma) [33] = experiment: as above
How it was run: as §1

[34] = system: BC-1 (B-Cell Non-Hodgkin's Lymphoma); experiment: as above
How it was run: as §1

[35] = system: NCI-H2023 (Non-Small Cell Lung Carcinoma); experiment: as above
How it was run: as §1

[36] = system: NCI-H1648 (Lung Adenocarcinoma); experiment: as above
How it was run: as §1

[37] = system: RPMI-8402 (T-Lymphoblastic Leukemia); experiment: as above
How it was run: as §1

[38] = system: MRK-nu-1 (Breast Carcinoma); experiment: as above
How it was run: as §1

[39] = system: MDA-MB-175-VII (Breast Carcinoma); experiment: as above
How it was run: as §1

[40] = system: NCI-H1435 (Non-Small Cell Lung Carcinoma); experiment: as above
How it was run: as §1

GCIY (Gastric Carcinoma) [41] = experiment: as above
How it was run: as §1

[42] = system: OVKATE (Ovarian Carcinoma); experiment: as above
How it was run: as §1

[43] = system: KNS-62 (Squamous Cell Lung Carcinoma); experiment: as above
How it was run: as §1

A375 (Melanoma) [44] = experiment: as above
How it was run: as §1

MG-63 (Osteosarcoma) [45] = experiment: as above
How it was run: as §1

[46] = system: SBC-3 (Small Cell Lung Carcinoma); experiment: as above
How it was run: as §1
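Throughout, for Bliss excess, mean over the matrix: after 72 h of two-drug dosing.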

Question: Which results are given for `N#Cc1cnc(Nc2cc(NC[C@H]3CNCCO3)c(C(F)(F)F)cn2)cn1` [SRA737] + C=CCn1c(=O)c2cnc(Nc3ccc(N4CCN(C)CC4)cc3)nc2n1-c1cccc(C(C)(C)O)n1 [AZD1775] (first compound max 10 µM, partner max 1 µM)?
Answer: Bliss excess [1]: 0.01; Bliss excess [2]: -0.011; Bliss excess (SK-MEL-24 (Melanoma) [3]): -0.0375; Bliss excess [4]: 0.031; Bliss excess [5]: -0.0283; Bliss excess [6]: 0.0209; Bliss excess [7]: 0.0027; Bliss excess (NCI-H2452 (Mesothelioma) [8]): -0.0018; Bliss excess [9]: 0.121; Bliss excess (C32 (Melanoma) [10]): 0.0397; Bliss excess [11]: 0.099; Bliss excess [12]: 0.0404; Bliss excess [13]: -0.0116; Bliss excess [14]: 0.0473; Bliss excess [15]: 0.0988; Bliss excess [16]: -0.0073; Bliss excess [17]: 0.0093; Bliss excess (GCIY (Gastric Carcinoma) [18]): 0.033; Bliss excess [19]: -0.0409; Bliss excess [20]: 0.0171; Bliss excess (A375 (Melanoma) [21]): 0.0455; Bliss excess (MG-63 (Osteosarcoma) [22]): 0.0974; Bliss excess [23]: 0.155; combination Emax [24]: 0.546; combination Emax [25]: 0.82; combination Emax (SK-MEL-24 (Melanoma) [26]): 0.46; combination Emax [27]: 0.383; combination Emax [28]: 0.476; combination Emax [29]: 0.483; combination Emax [30]: 0.629; combination Emax (NCI-H2452 (Mesothelioma) [31]): 0.722; combination Emax [32]: 0.937; combination Emax (C32 (Melanoma) [33]): 0.581; combination Emax [34]: 0.988; combination Emax [35]: 0.594; combination Emax [36]: 0.621; combination Emax [37]: 1; combination Emax [38]: 0.724; combination Emax [39]: 0.276; combination Emax [40]: 0.267; combination Emax (GCIY (Gastric Carcinoma) [41]): 0.611; combination Emax [42]: 0.222; combination Emax [43]: 0.53; combination Emax (A375 (Melanoma) [44]): 0.615; combination Emax (MG-63 (Osteosarcoma) [45]): 0.867; combination Emax [46]: 0.86

Question: What does the source list for `O=C(c1cc(Cc2n[nH]c(=O)c3ccccc23)ccc1F)N1CCN(C(=O)C2CC2)CC1` [Olaparib] + CC1(C)CCC(CN2CCN(c3ccc(C(=O)NS(=O)(=O)c4ccc(NCC5CCOCC5)c([N+](=O)[O-])c4)c(Oc4cnc5[nH]ccc5c4)c3)CC2)=C(c2ccc(Cl)cc2)C1 [Venetoclax] (first compound max 10 µM, 7x7, partner max 1 µM)?
Answer: Bliss excess [1]: -0.0096; Bliss excess [2]: -0.0323; Bliss excess (SK-MEL-24 (Melanoma) [3]): -0.0534; Bliss excess [4]: -0.0328; Bliss excess [5]: -0.026; Bliss excess [6]: -0.0419; Bliss excess [7]: -0.0111; Bliss excess (NCI-H2452 (Mesothelioma) [8]): -0.0646; Bliss excess [9]: 0.0557; Bliss excess (C32 (Melanoma) [10]): -0.0521; Bliss excess [11]: 0.0012; Bliss excess [12]: -0.0292; Bliss excess [13]: -0.0403; Bliss excess [14]: -0.0163; Bliss excess [15]: 0.0277; Bliss excess [16]: -0.0483; Bliss excess [17]: -0.01; Bliss excess (GCIY (Gastric Carcinoma) [18]): -0.0547; Bliss excess [19]: -0.0355; Bliss excess [20]: -0.0346; Bliss excess (A375 (Melanoma) [21]): -0.0248; Bliss excess (MG-63 (Osteosarcoma) [22]): 0.0113; Bliss excess [23]: -0.0063; combination Emax [24]: 0.169; combination Emax [25]: 0.174; combination Emax (SK-MEL-24 (Melanoma) [26]): 0.0984; combination Emax [27]: 0.128; combination Emax [28]: 0.239; combination Emax [29]: 0.383; combination Emax [30]: 0.229; combination Emax (NCI-H2452 (Mesothelioma) [31]): 0.143; combination Emax [32]: 0.305; combination Emax (C32 (Melanoma) [33]): 0.145; combination Emax [34]: 0.252; combination Emax [35]: 0.134; combination Emax [36]: 0.118; combination Emax [37]: 0.53; combination Emax [38]: 0.293; combination Emax [39]: 0.297; combination Emax [40]: 0.117; combination Emax (GCIY (Gastric Carcinoma) [41]): 0.119; combination Emax [42]: 0.122; combination Emax [43]: 0.147; combination Emax (A375 (Melanoma) [44]): 0.176; combination Emax (MG-63 (Osteosarcoma) [45]): 0.299; combination Emax [46]: 0.665

Reference: the supplement of paper PMC11061612
